Test results published in patent US8536187B2 (Gilead Sciences, Inc., priority 2008, dated 2013).

Experiments:
[1] = system: HCV replicon in human hepatoma Huh-7 cell line; test: Anti-HCV replicon assay, EC50 (luciferase luminescence); format: cell-based; settings: Hepatitis C virus, Huh-7, 72 h
Outline: (§1)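 Huh-7 cells carrying HCV replicon (6000/well) incubated with serially diluted compound, 0.5% DMSO final, 3 days at 37° C, 5% CO2. EC50 from luciferase luminescence after 30 min lysis/substrate at room temperature; CC50 from CellTiter-Glo luminescence after 10 min at room temperature.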

[2] = CC50 assay (CellTiter-Glo) in Huh-7 HCV replicon cells; format: cell-based; settings: human, Table 2, 3 days incubation
Outline: as §1

| SMILES | EC50 [1] | CC50 at 3 days [2] |
| --- | --- | --- |
| CC(C)Oc1ccc(-c2ccc3nc(N[C@H](C)Cn4cncn4)nc(NCC(F)(F)F)c3n2)cn1 [Example 241, N^2-((R)-1-(1H-1,2,4-triazol-1-yl)propan-2-yl)-6-(6-isopropoxypyridin-3-yl)-N^4-(2,2,2-trifluoroethyl)pyrido [3,2-d]pyrimidine-2,4-diamine] | < 0.1 µM | > 10 µM |
| CC(C)Oc1ccc(-c2ccc3nc(NCc4ccc(-n5cccn5)cc4)nc(NCC(F)(F)F)c3n2)cn1 [Example 242, N^2-(4-(1H-pyrazol-1-yl)benzyl)-6-(6-isopropoxypyridin-3-yl)-N^4-(2,2,2-trifluoroethyl)pyrido [3,2-d]pyrimidine-2,4-diamine] | < 0.1 µM | 1 to 10 µM |
| CCOc1ccc(-c2ccc3nc(NCc4ccc(-n5cncn5)cc4)nc(NCC(F)(F)F)c3n2)cc1S(N)(=O)=O [Example 243, 5-(2-(4-(1H-1,2,4-triazol-1-yl)benzylamino)-4-(2,2,2-trifluoroethylamino)pyrido [3,2-d]pyrimidin-6-yl)-2-ethoxybenzenesulfonamide] | < 0.1 µM | > 10 µM |
| NS(=O)(=O)c1ccc(CNc2nc(NCC(F)(F)F)c3nc(-c4ccc(OC(F)F)nc4)ccc3n2)cc1 [Example 244, 4-((6-(6-(difluoromethoxy)pyridin-3-yl)-4-(2,2,2-trifluoroethylamino)pyrido [3,2-d]pyrimidin-2-ylamino)methyl)benzene-sulfonamide] | 0.1 to 0.25 µM | > 10 µM |
| FC(F)Oc1ccc(-c2ccc3nc(NCc4ccc(-n5cncn5)cc4)nc(NCC(F)(F)F)c3n2)cn1 [Example 245, N^2-(4-(1H-1,2,4-triazol-1-yl)benzyl)-6-(6-(difluoro-methoxy)pyridin-3-yl)-N^4-(2,2,2-trifluoroethyl)pyrido [3,2-d]pyrimidine-2,4-diamine] | < 0.1 µM | > 10 µM |
| FC(F)(F)CNc1nc(NCc2ccc(-n3cncn3)cc2)nc2ccc(-c3ccc(OC4CC4)nc3)nc12 [Example 246, N^2-(4-(1H-1,2,4-triazol-1-yl)benzyl)-6-(6-cyclopropoxy-pyridin-3-yl)-N^4-(2,2,2-trifluoroethyl)pyrido[3,2-d] pyrimidine-2,4-diamine] | < 0.1 µM | > 10 µM |
| CC1(Oc2nc(NCc3ccc(-n4cncn4)cc3)nc3ccc(-c4ccc(OC5CC5)nc4)nc23)CC1 [Example 247, N-(4-(1H-1,2,4-triazol-1-yl)benzyl)-6-(6-cyclopropoxy-pyridin-3-yl)-4-(1-methylcyclo-propoxy)pyrido[3,2-d]pyrimidin-2-amine] | < 0.1 µM | 1 to 10 µM |
| c1ncn(-c2ccc(CNc3nc(OC4CC4)c4nc(-c5ccc(OC6CC6)nc5)ccc4n3)cc2)n1 [Example 248, N-(4-(1H-1,2,4-triazol-1-yl)benzyl)-4-cyclopropoxy-6-(6-cyclopropoxypyridin-3-yl)pyrido[3,2-d]pyrimidin-2-amine] | < 0.1 µM | 1 to 10 µM |
| CC1(Oc2nc(NCc3ccc(-n4cncn4)cc3)nc3ccc(-c4ccc(OC5CCC5)nc4)nc23)CC1 [Example 249, N-(4-(1H-1,2,4-triazol-1-yl)benzyl)-6-(6-cyclobutoxy-pyridin-3-yl)-4-(1-methylcyclo-propoxy)pyrido[3,2-d] pyrimidin-2-amine] | < 0.1 µM | 1 to 10 µM |
| FC(F)(F)CNc1nc(NCc2ccc(-n3cncn3)cc2)nc2ccc(-c3ccc(OC4CCC4)nc3)nc12 [Example 250, N^2-(4-(1H-1,2,4-triazol-1-yl)benzyl)-6-(6-cyclobutoxy-pyridin-3-yl)-N^4-(2,2,2-trifluoroethyl)pyrido[3,2-d] pyrimidine-2,4-diamine] | < 0.1 µM | 1 to 10 µM |
| c1ncn(-c2ccc(CNc3nc(OC4CC4)c4nc(-c5ccc(OC6CCC6)nc5)ccc4n3)cc2)n1 [Example 251, N-(4-(1H-1,2,4-triazol-1-yl)benzyl)-6-(6-cyclobutoxy-pyridin-3-yl)-4-cyclopropoxy-pyrido[3,2-d]pyrimidin-2-amine] | 0.1 to 0.25 µM | 1 to 10 µM |
| C[C@@H](Nc1nc(OC2CCC2)c2nc(-c3ccc(OC4CC4)nc3)ccc2n1)c1ccc(S(N)(=O)=O)cc1 [Example 252, 4-((R)-1-(4-cyclobutoxy-6-(6-cyclopropoxypyridin-3-yl)pyrido[3,2-d]pyrimidin-2-ylamino)ethyl)benzene-sulfonamide] | < 0.1 µM | 1 to 10 µM |
| FC(F)(F)CNc1nc(NCc2ccc(-n3cncn3)cc2)nc2ccc(-c3cnc(OC4CC4)nc3)nc12 [Example 253, N^2-(4-(1H-1,2,4-triazol-1-yl)benzyl)-6-(2-cyclopropoxy-pyrimidin-5-yl)-N^4-(2,2,2-trifluoroethyl)pyrido[3,2-d] pyrimidine-2,4-diamine] | < 0.1 µM | > 10 µM |
| c1ncn(-c2ccc(CNc3nc(OC4CC4)c4nc(-c5cnc(OC6CC6)nc5)ccc4n3)cc2)n1 [Example 254, N-(4-(1H-1,2,4-triazol-1-yl)benzyl)-4-cyclopropoxy-6-(2-cyclopropoxypyrimidin-5-yl)pyrido[3,2-d]pyrimidin-2-amine] | < 0.1 µM | > 10 µM |
| [2H]C([2H])([2H])C([2H])([2H])Oc1ccc(-c2ccc3nc(N[C@H](C)c4ccc(-n5cncn5)cc4)nc(NCC(F)(F)F)c3n2)cn1 [Example 255, N^2-((R)-1-(4-(1H-1,2,4-triazol-1-yl)phenyl)ethyl)-6-(6-pentadeuteroethoxypyridin-3-yl)-N^4-(2,2,2-trifluoroethyl) pyrido[3,2-d]pyrimidine-2,4-diamine] | < 0.1 µM | 1 to 10 µM |
| [2H]C([2H])([2H])C([2H])([2H])Oc1ccc(-c2ccc3nc(NCc4ccc(-n5cncn5)cc4)nc(NCC(F)(F)F)c3n2)cn1 [Example 256, N^2-(4-(1H-1,2,4-triazol-1-yl)benzyl)-6-(6-pentadeutero-ethoxypyridin-3-yl)-N^4-(2,2,2-trifluoroethyl)pyrido[3,2-d] pyrimidine-2,4-diamine] | < 0.1 µM | > 10 µM |
| CC1(Oc2nc(NCc3ccc(-n4cncn4)cc3)nc3ccc(-c4cnc(OC5CC5)nc4)nc23)CC1 [Example 257, N-(4-(1H-1,2,4-triazol-1-yl)benzyl)-6-(2-cyclopropoxy-pyrimidin-5-yl)-4-(1-methyl-cyclopropoxy)pyrido[3,2-d] pyrimidin-2-amine] | < 0.1 µM | 1 to 10 µM |
| C[C@H](Cn1cncn1)Nc1nc(NCC(F)(F)F)c2nc(-c3ccc(OC4CC4)nc3)ccc2n1 [Example 258, N^2-((R)-1-(1H-1,2,4-triazol-1-yl)propan-2-yl)-6-(6-cyclo-propoxypyridin-3-yl)-N^4-(2,2,2-trifluoroethyl)pyrido[3,2-d] pyrimidine-2,4-diamine] | < 0.1 µM | > 10 µM |
| CCOc1ccc(-c2ccc3nc(N[C@H](C)c4ccc(S(N)(=O)=O)cc4)nc(NCC(F)(F)F)c3n2)cc1S(N)(=O)=O [Example 261, 4-((R)-1-(6-(4-ethoxy-3-(aminosulfonyl)phenyl)-4-(2,2,2-trifluoroethylamino)pyrido[3,2-d]pyrimidin-2-ylamino)ethyl)benzene-sulfonamide] | < 0.1 µM | > 10 µM |
